From US20230416330A1, “Optimized GIP Peptide Analogues” (Antag Therapeutics ApS, priority 2019, published 2023) come the findings set out here.

Each structure is given as a SMILES string. Starred links: 1 amine or outer side, 2 acyl side, 3 side chain; linkers in the order of their positions; H or OH if unused. Non-standard residues stand in square brackets, D forms with d. Residues, ends and D or L forms follow the SMILES beside them. *: point of attachment. C16 diacid = O=C(O)CCCCCCCCCCCCCCC(=O)*; Glutaryl = O=C(CCCC(=O)[*:2])[*:1]; Palmitoyl = CCCCCCCCCCCCCCCC(=O)*; Aib = CC(C)(N)C(=O)O

Data set [1] can be described thus: Physical stability: fibril formation in Thioflavin T (ThT) assay with agitation. The conditions noted are these: for Avr lag time (h) / Avr lag time: 25° C., agitation. The class given is physicochemical. How it is done:
Continuous measurement of the fluorescence emission at 486 nm can be used as a measure of fibrillation behavior of peptides and proteins. The time until onset of fibrillation or fibrillation lag time is estimated here by defining the lag time (Tlag) as the point in time where the signal relative to the pre-transition baseline has reached 10% of the post-transition baseline.
50 mM sodium phosphate buffer for dissolving some samples was prepared in ultrapure water (Milli-Q® Reference A+ System, Merck) with a resistivity of 18.2 MΩ·cm. The buffer was adjusted to pH 7.4 and filtered.
The ultrapure water (MilliQ) for dissolving some samples was adjusted to pH 7.4 with NaOH and filtered prior to sample preparation.
(§1) Peptides were either dissolved in sodium phosphate buffer (50 mM, pH 7.4, filtered) or dissolved in ultrapure (MilliQ) water (adjusted to pH 7.4 with NaOH, filtered) (see Table 3). All peptide samples were prepared to a concentration of 1, 5, 7.5 or 15 mg/ml. All samples, with the exception of reference peptides GIP(3-30), AT158, and AT482 dissolved readily and produced clear and colorless solutions with gentle mixing. Peptide samples were subsequently filtered through 0.22 μm nylon filters (Q-Max® RR syringe filter, 13 mm, Frisenette, DK) to produce particle-free solutions. All samples were added to a 96-well plate reader for the ThT assay at t=0.
For each sample, […] ThT (1 mM) was added to 1.2 mL peptide solution. From this sample mixture, an amount of 200 uL/well was pipetted into four or five wells (n=4 or 5). Blank samples (buffer+ThT) were also included. One 3 mm silica bead was added to each well containing samples and the plate was subjected to orbital rotation at 300 rpm to agitate and stress the samples. The temperature was kept at 25° C. throughout the measurement.

Data set [2] can be described thus: Solubility by visual inspection of peptide solutions. The class given is physicochemical. How it is done:
as §1
Clear visual appearance may be taken as an indicator of the immediate solubility of the peptide. […] Thus, A13Aib and/or N24E substitutions appear to increase solubility.

Take `CC[C@H](C)[C@H](NC(=O)[C@H](CCCCN)NC(=O)[C@H](CC(=O)O)NC(=O)[C@H](CCSC)NC(=O)C(C)(C)NC(=O)[C@@H](NC(=O)[C@H](CO)NC(=O)[C@H](Cc1ccc(O)cc1)NC(=O)[C@H](CC(=O)O)NC(=O)[C@H](CO)NC(=O)[C@@H](NC(=O)[C@H](Cc1ccccc1)NC(=O)[C@@H](NC(=O)CNC(=O)CCCC(=O)O)[C@@H](C)O)[C@@H](C)CC)[C@@H](C)CC)C(=O)N[C@@H](CCCCNC(=O)CCCCCCCCCCCCCCC(=O)O)C(=O)N[C@@H](CCC(N)=O)C(=O)N[C@@H](CCC(N)=O)C(=O)N[C@@H](CC(=O)O)C(=O)N[C@@H](Cc1ccccc1)C(=O)N[C@H](C(=O)N[C@@H](CC(N)=O)C(=O)N[C@@H](Cc1c[nH]c2ccccc12)C(=O)N[C@@H](CC(C)C)C(=O)N[C@@H](CC(C)C)C(=O)N[C@@H](C)C(=O)N[C@@H](CCC(N)=O)C(=O)N[C@@H](CCCCN)C(=O)N1CCC[C@H]1C(=O)N[C@@H](CO)C(=O)N[C@@H](CO)C(=O)NCC(=O)N[C@@H](C)C(=O)N1CCC[C@H]1C(=O)N1CCC[C@H]1C(=O)N1CCC[C@H]1C(=O)N[C@@H](CO)C(=O)O)C(C)C` [AT763] (Glutaryl-GTFISDYSI[Aib]MDKIK(C16 diacid)QQDFVNWLLAQKPSSGAPPPS-OH): the “Avr lag time (h)” value in data set [1] (1 mg/ml, TFA, Phosphate (7.4)) is listed as “fnd (Fnd = fibrils not detected within experiment time (96 hours) with agitation.)”; in data set [1] (5 mg/ml, TFA, MilliQ), “fnd (Fnd = fibrils not detected within experiment time (96 hours) with agitation.)”; in data set [1] (5 mg/ml, TFA, Phosphate), “fnd (Fnd = fibrils not detected within experiment time (96 hours) with agitation.)”. In data set [1] (in phosphate buffer, about 94 h, orbital rotation), the “Fibril formation (FIG. 1)” value was “does not form fibrils”. The Visual appearance result is on record as “Clear” in data set [2] (1 mg/ml, TFA, Phosphate (7.4)); “Clear” in data set [2] (5 mg/ml, TFA, MilliQ); “Clear” in data set [2] (5 mg/ml, TFA, Phosphate).
In the case of `CCCCCCCCCCCCCCCC(=O)NCCCC[C@H](NC(=O)[C@@H](NC(=O)[C@H](CCCCN)NC(=O)[C@H](CC(=O)O)NC(=O)[C@H](CCSC)NC(=O)[C@H](C)NC(=O)[C@@H](NC(=O)[C@H](CO)NC(=O)[C@H](Cc1ccc(O)cc1)NC(=O)[C@H](CC(=O)O)NC(=O)[C@H](CO)NC(=O)[C@@H](NC(=O)[C@H](Cc1ccccc1)NC(=O)[C@@H](NC(=O)CNC(=O)[C@@H](N)CCC(=O)O)[C@@H](C)O)[C@@H](C)CC)[C@@H](C)CC)[C@@H](C)CC)C(=O)N[C@@H](CCC(N)=O)C(=O)N[C@@H](CCC(N)=O)C(=O)N[C@@H](CC(=O)O)C(=O)N[C@@H](Cc1ccccc1)C(=O)N[C@H](C(=O)N[C@@H](CCC(=O)O)C(=O)N[C@@H](Cc1c[nH]c2ccccc12)C(=O)N[C@@H](CC(C)C)C(=O)N[C@@H](CC(C)C)C(=O)N[C@@H](C)C(=O)N[C@@H](CCC(N)=O)C(=O)N[C@@H](CCCCN)C(=O)N1CCC[C@H]1C(=O)N[C@@H](CO)C(=O)N[C@@H](CO)C(=O)NCC(=O)N[C@@H](C)C(=O)N1CCC[C@H]1C(=O)N1CCC[C@H]1C(=O)N1CCC[C@H]1C(=O)N[C@@H](CO)C(=O)O)C(C)C` [AT751] (H-EGTFISDYSIAMDKIK(Palmitoyl)QQDFVEWLLAQKPSSGAPPPS-OH; N-terminus assumed), the “Avr lag time” value in data set [1] (1 mg/ml, TFA, Phosphate (7.4)) is given as under 24 h. In addition, the Visual appearance entry in data set [2] (1 mg/ml, TFA, Phosphate (7.4)) was “Clear”.
Consider `CC[C@H](C)[C@H](NC(=O)[C@H](CCCCN)NC(=O)[C@H](CCC(=O)O)NC(=O)[C@H](CC(C)C)NC(=O)C(C)(C)NC(=O)[C@@H](NC(=O)[C@H](CO)NC(=O)[C@H](Cc1ccc(O)cc1)NC(=O)[C@H](CCC(=O)O)NC(=O)[C@H](CO)NC(=O)[C@@H](NC(=O)[C@H](Cc1ccccc1)NC(=O)[C@@H](NC(=O)CNC(=O)CCCC(=O)O)[C@@H](C)O)[C@@H](C)CC)[C@@H](C)CC)C(=O)N[C@@H](CCCCNC(=O)CCCCCCCCCCCCCCC(=O)O)C(=O)N[C@@H](CCC(N)=O)C(=O)N[C@@H](CCC(N)=O)C(=O)N[C@@H](CCC(=O)O)C(=O)N[C@@H](Cc1ccccc1)C(=O)N[C@H](C(=O)N[C@@H](CCC(=O)O)C(=O)N[C@@H](Cc1c[nH]c2ccccc12)C(=O)N[C@@H](CC(C)C)C(=O)N[C@@H](CC(C)C)C(=O)N[C@@H](C)C(=O)N[C@@H](CCC(N)=O)C(=O)N[C@@H](CCCCN)C(=O)N1CCC[C@H]1C(=O)N[C@@H](CO)C(=O)N[C@@H](CO)C(=O)NCC(=O)N[C@@H](C)C(=O)N1CCC[C@H]1C(=O)N1CCC[C@H]1C(=O)N1CCC[C@H]1C(=O)N[C@@H](CO)C(=O)O)C(C)C` [AT717] (Glutaryl-GTFISEYSI[Aib]LEKIK(C16 diacid)QQEFVEWLLAQKPSSGAPPPS-OH), for which the “Avr lag time (h)” value is recorded as “fnd (Fnd = fibrils not detected within experiment time (96 hours) with agitation.)” in data set [1] (1 mg/ml, TFA, Phosphate (7.4)); “fnd (Fnd = fibrils not detected within experiment time (96 hours) with agitation.)” in data set [1] (7.5 mg/ml, Na, MilliQ (8)); “fnd (Fnd = fibrils not detected within experiment time (96 hours) with agitation.)” in data set [1] (15 mg/ml, Na, MilliQ (8)). Further, the Visual appearance entry in data set [2] (1 mg/ml, TFA, Phosphate (7.4)) is “Clear”; in data set [2] (7.5 mg/ml, Na, MilliQ (8)) it was “Clear”; in data set [2] (15 mg/ml, Na, MilliQ (8)), “Clear”.
Take `CC[C@H](C)[C@H](NC(=O)[C@H](CO)NC(=O)[C@H](Cc1ccc(O)cc1)NC(=O)[C@H](CC(=O)O)NC(=O)[C@H](CO)NC(=O)[C@@H](NC(=O)[C@H](Cc1ccccc1)NC(=O)[C@@H](NC(=O)CNC(=O)[C@@H](N)CCC(=O)O)[C@@H](C)O)[C@@H](C)CC)C(=O)N[C@@H](C)C(=O)N[C@@H](CCSC)C(=O)N[C@@H](CC(=O)O)C(=O)N[C@@H](CCCCN)C(=O)N[C@H](C(=O)N[C@@H](CCCCNC(=O)CCCCCCCCCCCCCCC(=O)O)C(=O)N[C@@H](CCC(N)=O)C(=O)N[C@@H](CCC(N)=O)C(=O)N[C@@H](C)C(=O)N[C@@H](Cc1ccccc1)C(=O)N[C@H](C(=O)N[C@@H](CCC(=O)O)C(=O)N[C@@H](Cc1c[nH]c2ccccc12)C(=O)N[C@@H](CC(C)C)C(=O)N[C@@H](CC(C)C)C(=O)N[C@@H](C)C(=O)N[C@@H](CCC(N)=O)C(=O)N[C@@H](CCCCN)C(=O)N1CCC[C@H]1C(=O)N[C@@H](CO)C(=O)N[C@@H](CO)C(=O)NCC(=O)N[C@@H](C)C(=O)N1CCC[C@H]1C(=O)N1CCC[C@H]1C(=O)N1CCC[C@H]1C(=O)N[C@@H](CO)C(=O)O)C(C)C)[C@@H](C)CC` [AT745] (H-EGTFISDYSIAMDKIK(C16 diacid)QQAFVEWLLAQKPSSGAPPPS-OH; N-terminus assumed): the “Avr lag time” value in data set [1] (1 mg/ml, TFA, Phosphate (7.4)) was under 24 h. Moreover, the Visual appearance result in data set [2] (1 mg/ml, TFA, Phosphate (7.4)) is given as “Clear”.
